Experimental data: patent publication US9200008B2 (ASKA PHARMACEUTICAL CO., LTD., priority 2010, dated 2015)

Tested on: Human prostate cancer cell lines (PC-3 cells)
Test: Measurement of cell death-inducing activity (Test Example 1)
Format: cell-based
Settings: PC-3, 48 h, 48 hours after addition, tested at 10, 1, 0.1, 0.025 and 0.00625 μmol/L, qualitative evaluation of 10 fields, read-out: Concentration showing the cell death-inducing activity (cell death-inducing rate not less than 40%)
Procedure, shortened: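 PC-3 cells seeded at 1×10^5 cells/well and grown 48 h at 37 °C, 5% CO2, then exposed to compound at 10, 1, 0.1, 0.025 and 0.00625 μmol/L (DMSO control) for a further 48 h. Activity was called where cell death-inducing rate was not less than 40%.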

Compound	minimal effective concentration [µM]
COc1ccc(/C=N/NC(=O)c2cc(-c3ccc(Cl)cc3OC)cn2C)cc1 [Example 23-168, 4-(4-Chloro-2-methoxyphenyl)-1-methyl-1H-pyrrole-2-carboxylic acid (4-methoxybenzylidene)hydrazide]	1
COc1cc(Cl)ccc1-c1cc(C(=O)N/N=C/c2cc(C)c(O)c(C)c2)n(C)c1 [Example 23-169, 4-(4-Chloro-2-methoxyphenyl)-1-methyl-1H-pyrrole-2-carboxylic acid (4-hydroxy-3,5-dimethylbenzylidene)hydrazide]	10
COc1ccc(/C=N/NC(=O)c2cc(-c3ccc(Cl)cc3OC)cn2C)cc1O [Example 23-170, 4-(4-Chloro-2-methoxyphenyl)-1-methyl-1H-pyrrole-2-carboxylic acid (3-hydroxy-4-methoxybenzylidene)hydrazide]	10
Cc1cccc(-c2c[nH]c(C(=O)N/N=C/c3cc(C)c(O)c(C)c3)c2)c1C [Example 24-1, 4-(2,3-Dimethylphenyl)-1H-pyrrole-2-carboxylic acid [1-(4-hydroxy-3,5-dimethylphenyl)methylidene]hydrazide]	1
COc1ccc(/C=N/NC(=O)c2cc(-c3ccc(Cl)cc3)c[nH]2)cc1O [Example 24-2, 4-(4-Chlorophenyl)-1H-pyrrole-2-carboxylic acid [1-(3-hydroxy-4-methoxyphenyl)methylidene]hydrazide]	1
Cc1cc(/C=N/NC(=O)c2cc(-c3ccc(Cl)cc3)c[nH]2)cc(C)c1O [Example 24-3, 4-(4-Chlorophenyl)-1H-pyrrole-2-carboxylic acid[1-(4-hydroxy-3,5-dimethylphenyl)methylidene]hydrazide]	0.1
COc1ccc(/C=N/NC(=O)c2cnc(-c3ccc(Cl)cc3)[nH]2)cc1O [Example 25-1, 2-(4-Chlorophenyl)-3H-imidazole-4-carboxylic acid[1-(3-hydroxy-4-methoxyphenyl)methylidene]hydrazide]	10
Cc1ccccc1-c1ncc(C(=O)N/N=C/c2cc(C)c(O)c(C)c2)[nH]1 [Example 25-2, 2-(2-Methylphenyl)-3H-imidazole-4-carboxylic acid[1-(4-hydroxy-3,5-dimethylphenyl)methylidene]hydrazide]	10
COc1ccc(/C=N/NC(=O)c2cnc(-c3ccccc3C)[nH]2)cc1O [Example 25-3, 2-(2-Methylphenyl)-3H-imidazole-4-carboxylic acid[1-(3-hydroxy-4-methoxyphenyl)methylidene]hydrazide]	10
Cc1cc(/C=N/NC(=O)c2cnc(-c3ccccc3C)[nH]2)ccc1O [Example 25-4, 2-(2-Methylphenyl)-3H-imidazole-4-carboxylic acid[1-(4-hydroxy-3-methylphenyl)methylidene]hydrazide]	10
COc1ccc(/C=N/NC(=O)c2[nH]c(-c3ccc(Cl)cc3)nc2C)cc1O [Example 25-5, 2-(4-Chlorophenyl)-5-methyl-3H-imidazole-4-carboxylic acid[1-(3-hydroxy-4-methoxyphenyl)methylidene]hydrazide]	10
Cc1cc(/C=N/NC(=O)c2oc(-c3ccc(Cl)cc3)nc2C)cc(C)c1O [Example 26-1, 2-(4-Chlorophenyl)-4-methyloxazole-5-carboxylic acid[N′-(4-hydroxy-3,5-dimethylphenyl)methylidene]hydrazide]	10
COc1ccc(/C=N/NC(=O)c2oc(-c3ccccc3OC)nc2C)cc1O [Example 26-2, 2-(2-Methoxyphenyl)-4-methyloxazole-5-carboxylic acid[N′-(3-hydroxy-4-methoxylphenyl)methylidene]hydrazide]	10
COc1ccc(/C=N/NC(=O)c2oc(-c3ccccc3OC)nc2C)cc1C [Example 26-3]	10
O=C(N/N=C/c1ccc(OC(F)F)c(O)c1)c1cc(-c2ccc(Cl)cc2Cl)ns1 [Example 27-2]	10
Cc1cc(/C=N/NC(=O)c2cc(-c3ccc(Cl)cc3Cl)ns2)cc(C)c1O [Example 27-4]	1
COc1ccc(/C=N/NC(=O)c2cc(-c3ccccc3OC)ns2)cc1O [Example 27-7]	0.1
COc1ccccc1-c1cc(C(=O)N/N=C/c2cc(C)c(O)c(C)c2)sn1 [Example 27-8]	0.1
Cc1ccccc1-c1cc(C(=O)N/N=C/c2cc(C)c(O)c(C)c2)sn1 [Example 27-10]	0.1
Cc1cc(/C=N/NC(=O)c2cc(-c3ccccn3)ns2)cc(C)c1O [Example 27-12]	1
Cc1cccnc1-c1cc(C(=O)N/N=C/c2cc(C)c(O)c(C)c2)sn1 [Example 27-13]	0.1

Compound	minimal effective concentration [µM]
Cc1cc(/C=N/NC(=O)c2snc(-c3ccc(Cl)cc3Cl)c2N)ccc1O [Example 27-14, 4-Amino-3-(2,4-dichlorophenyl)isothiazole-5-carboxylic acid[1-(4-hydroxy-3-methylphenyl)methylidene]hydrazide]	10
Cc1cc(/C=N/NC(=O)c2snc(-c3ccc(Cl)cc3Cl)c2N)cc(C)c1O [Example 27-15, 4-Amino-3-(2,4-dichlorophenyl)isothiazole-5-carboxylic acid[1-(4-hydroxy-3,5-dimethylphenyl)methylidene]hydrazide]	10
COc1ccc(COC(=S)Nc2sc(-c3ccc(Cl)cc3OC)nc2C)cc1 [Example 28-1, [2-(4-Chloro-2-methoxyphenyl)-4-methylthiazol-5-yl]thiocarbamic acid O-(4-methoxybenzyl)ester]	10
COc1ccc(/C=N/NC(=O)Cc2sc(-c3ccc(Cl)cc3OC)nc2C)cc1 [Example 29-1, [2-(4-Chloro-2-methoxyphenyl)-4-methylthiazol-5-yl]acetic acid[1-(4-methoxyphenyl)methylidene]hydrazide]	1
COc1cc(Cl)ccc1-c1nc(C)c(CC(=O)N/N=C/c2cc(C)c(O)c(C)c2)s1 [Example 29-2, [2-(4-Chloro-2-methoxyphenyl)-4-methylthiazol-5-yl]acetic acid[1-(4-hydroxy-3,5-dimethylphenyl)methylidene]hydrazide]	1
C/C(=N\N=C\c1cc(C)c(O)c(C)c1)c1sc(-c2ccc(Cl)cc2)nc1C [Example 30-1, 4-{[1-[2-(4-Chlorophenyl)-4-methylthiazol-5-yl]ethylidene]hydrazonomethyl}-2,6-dimethyl-phenol]	10
COc1ccc(/C=N/N=C(\C)c2sc(-c3ccc(Cl)cc3)nc2C)cc1O [Example 30-2]	1
COc1ccc(COCC(=O)c2sc(-c3ccc(C)cc3C)nc2C)cc1 [Example 31-1, 1-[2-(2,4-Dimethylphenyl)-4-methylthiazol-5-yl]-2-(4-methoxybenzyloxy)ethanone]	10
COc1ccc(/C=C/C(=O)Nc2sc(-c3ccc(Cl)cc3OC)nc2C)cc1 [Example 34-1, N-[2-(4-Chloro-2-methoxyphenyl)-4-methylthiazol-5-yl]-3-(4-methoxyphenyl)acrylamide]	1
COc1cc(C)ccc1-c1nc(C)c(NC(=O)OCc2ccc3ncsc3c2)s1 [Example 36-2]	1
COc1ccc(-c2nc(C)c(NC(=O)OCc3ccc4ncsc4c3)s2)c(OC)c1 [Example 36-3]	10
Cc1ccc(-c2nc(C)c(NC(=O)OCc3ccc4ncsc4c3)s2)c(C)c1 [Example 36-4]	10
CCc1nc(-c2ccc(F)cc2C)sc1NC(=O)OCc1ccc2ncsc2c1 [Example 36-5]	10
COc1cc(Cl)ccc1-c1nc(C)c(NC(=O)OCc2ccc3sc(C)nc3c2)s1 [Example 37-1, [2-(4-Chloro-2-methoxyphenyl)-4-methylthiazol-5-yl]carbamic acid 2-methylbenzothiazol-5-ylmethyl ester]	0.1
COc1cc(C)ccc1-c1nc(C)c(NC(=O)OCc2ccc3sc(C)nc3c2)s1 [Example 37-2]	1
Cc1ccc(-c2nc(C)c(NC(=O)OCc3ccc4sc(C)nc4c3)s2)c(C)c1 [Example 37-3]	1
Cc1nc2cc(COC(=O)Nc3sc(-c4ccc(Cl)cc4C)nc3C)ccc2s1 [Example 37-4]	1
COc1cc(Cl)ccc1-c1nc(C)c(NC(=O)OCc2ccc3c(c2)nc2n3CCN(C)C2)s1 [Example 38-1, [2-(4-Chloro-2-methoxyphenyl)-4-methylthiazol-5-yl]carbamic acid 2-methyl-1,2,3,4-tetrahydrobenzo[4,5]imidazo[1,2-a]pyrazin-8-ylmethyl ester]	1
COc1cc(C)ccc1-c1nc(C)c(NC(=O)OCc2ccc3c(c2)nc2n3CCN(C)C2)s1 [Example 38-2, [2-(2-Methoxy-4-methylphenyl)-4-methylthiazol-5-yl]carbamic acid 2-methyl-1,2,3,4-tetrahydrobenzo[4,5]imidazo[1,2-a]pyrazin-8-ylmethyl ester]	10
Cc1ccc(-c2nc(C)c(NC(=O)OCc3ccc4c(c3)nc3n4CCN(C)C3)s2)c(C)c1 [Example 38-3, [2-(2,4-Dimethylphenyl)-4-methylthiazol-5-yl]carbamic acid 2-methyl-1,2,3,4-tetrahydrobenzo[4,5]imidazo[1,2-a]pyrazin-8-ylmethyl ester]	10
COc1cc(C)ccc1-c1nc(C)c(NC(=O)OCc2ccc3c(c2)nc2n3CCNC2)s1 [Example 39-1, [2-(2-Methoxy-4-methylphenyl)-4-methylthiazol-5-yl]carbamic acid 1,2,3,4-tetrahydrobenzo[4,5]imidazo[1,2-a]pyrazin-8-ylmethyl ester]	0.1
